# Tested on: Energy system protein genes
# Assay: DNA chip mRNA expression in yeast, energy system protein genes (Table 4)
# Format: cell-based, Saccharomyces cerevisiae S288C
# In short: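 S. cerevisiae S288C grown at 25° C in YPD were exposed in log phase for two hours to one toxic chemical at a growth-inhibiting, non-lethal concentration; untreated cells served as control. Poly(A) mRNA was reverse-transcribed with Cy3/Cy5-dUTP and hybridized to a whole-genome yeast DNA chip at 65° C for over 12 hours; values are fluorescence ratios versus untreated.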
substance,measurement,setting,value
manganese ethylenebis(dithiocarbamate) [(8)],The level of expressed mRNA in the presence of chemical substance/The level of expressed mRNA in the absence of chemical substance,yeast gene YJR048W,0.9
same,The level of expressed mRNA in the presence of chemical substance/The level of expressed mRNA in the absence of chemical substance,"yeast gene YJR121W, cells incubated two hours with the chemical substance",0.7
same,The level of expressed mRNA in the presence of chemical substance/The level of expressed mRNA in the absence of chemical substance,yeast gene YJR155W,10.6
same,The level of expressed mRNA in the presence of chemical substance/The level of expressed mRNA in the absence of chemical substance,"yeast gene YKL016C, cells incubated two hours with the chemical substance",1.6
same,The level of expressed mRNA in the presence of chemical substance/The level of expressed mRNA in the absence of chemical substance,"yeast gene YKL060C, cells incubated two hours with the chemical substance",1.1
same,The level of expressed mRNA in the presence of chemical substance/The level of expressed mRNA in the absence of chemical substance,"yeast gene YKL141W, cells incubated two hours with the chemical substance",0.8
same,The level of expressed mRNA in the presence of chemical substance/The level of expressed mRNA in the absence of chemical substance,"yeast gene YKL148C, cells incubated two hours with the chemical substance",0.8
same,The level of expressed mRNA in the presence of chemical substance/The level of expressed mRNA in the absence of chemical substance,"yeast gene YKR009C, cells incubated two hours with the chemical substance",0.9
same,The level of expressed mRNA in the presence of chemical substance/The level of expressed mRNA in the absence of chemical substance,"yeast gene YKR058W, cells incubated two hours with the chemical substance, 25° C., YPD medium",1.5
same,The level of expressed mRNA in the presence of chemical substance/The level of expressed mRNA in the absence of chemical substance,yeast gene YKR097W,2.5
same,The level of expressed mRNA in the presence of chemical substance/The level of expressed mRNA in the absence of chemical substance,"yeast gene YLL041C, cells incubated two hours with the chemical substance",0.8
same,The level of expressed mRNA in the presence of chemical substance/The level of expressed mRNA in the absence of chemical substance,"yeast gene YLR038C, cells incubated two hours with the chemical substance",1.4
same,The level of expressed mRNA in the presence of chemical substance/The level of expressed mRNA in the absence of chemical substance,"yeast gene YLR044C, cells incubated two hours with the chemical substance",0.7
same,The level of expressed mRNA in the presence of chemical substance/The level of expressed mRNA in the absence of chemical substance,"yeast gene YLR134W, cells incubated two hours with the chemical substance",0.8
same,The level of expressed mRNA in the presence of chemical substance/The level of expressed mRNA in the absence of chemical substance,"yeast gene YLR258W, cells incubated two hours with the chemical substance",0.9
same,The level of expressed mRNA in the presence of chemical substance/The level of expressed mRNA in the absence of chemical substance,"yeast gene YLR284C, cells incubated two hours with the chemical substance",1.2
same,The level of expressed mRNA in the presence of chemical substance/The level of expressed mRNA in the absence of chemical substance,"yeast gene YLR295C, cells incubated two hours with the chemical substance, 25° C., YPD medium",1.2
same,The level of expressed mRNA in the presence of chemical substance/The level of expressed mRNA in the absence of chemical substance,"yeast gene YLR304C, cells incubated two hours with the chemical substance",0.6
same,The level of expressed mRNA in the presence of chemical substance/The level of expressed mRNA in the absence of chemical substance,yeast gene YLR345W,1.4
same,The level of expressed mRNA in the presence of chemical substance/The level of expressed mRNA in the absence of chemical substance,"yeast gene YLR354C, cells incubated two hours with the chemical substance",1.4
same,The level of expressed mRNA in the presence of chemical substance/The level of expressed mRNA in the absence of chemical substance,"yeast gene YLR377C, cells incubated two hours with the chemical substance",0.7
same,The level of expressed mRNA in the presence of chemical substance/The level of expressed mRNA in the absence of chemical substance,"yeast gene YLR395C, cells incubated two hours with the chemical substance",1.0
same,The level of expressed mRNA in the presence of chemical substance/The level of expressed mRNA in the absence of chemical substance,yeast gene YML087C,1.3
same,The level of expressed mRNA in the presence of chemical substance/The level of expressed mRNA in the absence of chemical substance,"yeast gene YML120C, cells incubated two hours with the chemical substance",0.9
same,The level of expressed mRNA in the presence of chemical substance/The level of expressed mRNA in the absence of chemical substance,"yeast gene YML129C, cells incubated two hours with the chemical substance",1.2
same,The level of expressed mRNA in the presence of chemical substance/The level of expressed mRNA in the absence of chemical substance,"yeast gene YMR073C, cells incubated two hours with the chemical substance",1.1
same,The level of expressed mRNA in the presence of chemical substance/The level of expressed mRNA in the absence of chemical substance,yeast gene YMR118C,1.0
same,The level of expressed mRNA in the presence of chemical substance/The level of expressed mRNA in the absence of chemical substance,"yeast gene YMR205C, cells incubated two hours with the chemical substance",0.7
same,The level of expressed mRNA in the presence of chemical substance/The level of expressed mRNA in the absence of chemical substance,"yeast gene YMR261C, cells incubated two hours with the chemical substance",0.7
same,The level of expressed mRNA in the presence of chemical substance/The level of expressed mRNA in the absence of chemical substance,"yeast gene YMR267W, cells incubated two hours with the chemical substance, 25° C., YPD medium",1.5
same,The level of expressed mRNA in the presence of chemical substance/The level of expressed mRNA in the absence of chemical substance,"yeast gene YMR323W, cells incubated two hours with the chemical substance",0.8
same,The level of expressed mRNA in the presence of chemical substance/The level of expressed mRNA in the absence of chemical substance,yeast gene YNL071W,0.9
same,The level of expressed mRNA in the presence of chemical substance/The level of expressed mRNA in the absence of chemical substance,"yeast gene YNL202W, cells incubated two hours with the chemical substance",1.2
same,The level of expressed mRNA in the presence of chemical substance/The level of expressed mRNA in the absence of chemical substance,yeast gene YNL241C,0.9
same,The level of expressed mRNA in the presence of chemical substance/The level of expressed mRNA in the absence of chemical substance,yeast gene YNL331C,13.1
same,The level of expressed mRNA in the presence of chemical substance/The level of expressed mRNA in the absence of chemical substance,"yeast gene YOL086C, cells incubated two hours with the chemical substance",0.8
same,The level of expressed mRNA in the presence of chemical substance/The level of expressed mRNA in the absence of chemical substance,yeast gene YOL165C,17.8
same,The level of expressed mRNA in the presence of chemical substance/The level of expressed mRNA in the absence of chemical substance,"yeast gene YOR142W, cells incubated two hours with the chemical substance",0.8
same,The level of expressed mRNA in the presence of chemical substance/The level of expressed mRNA in the absence of chemical substance,"yeast gene YOR178C, cells incubated two hours with the chemical substance",0.9
same,The level of expressed mRNA in the presence of chemical substance/The level of expressed mRNA in the absence of chemical substance,"yeast gene YOR388C, cells incubated two hours with the chemical substance",0.7
same,The level of expressed mRNA in the presence of chemical substance/The level of expressed mRNA in the absence of chemical substance,"yeast gene YPL031C, cells incubated two hours with the chemical substance",1.0
same,The level of expressed mRNA in the presence of chemical substance/The level of expressed mRNA in the absence of chemical substance,"yeast gene YPL061W, cells incubated two hours with the chemical substance",0.8
same,The level of expressed mRNA in the presence of chemical substance/The level of expressed mRNA in the absence of chemical substance,yeast gene YPL088W,1.9
same,The level of expressed mRNA in the presence of chemical substance/The level of expressed mRNA in the absence of chemical substance,yeast gene YPL171C,20.5
same,The level of expressed mRNA in the presence of chemical substance/The level of expressed mRNA in the absence of chemical substance,yeast gene YPL240C,1.2
same,The level of expressed mRNA in the presence of chemical substance/The level of expressed mRNA in the absence of chemical substance,"yeast gene YPL262W, cells incubated two hours with the chemical substance",1.0
same,The level of expressed mRNA in the presence of chemical substance/The level of expressed mRNA in the absence of chemical substance,"yeast gene YPL275W, cells incubated two hours with the chemical substance",1.0
same,The level of expressed mRNA in the presence of chemical substance/The level of expressed mRNA in the absence of chemical substance,"yeast gene YPL276W, cells incubated two hours with the chemical substance",0.9
same,The level of expressed mRNA in the presence of chemical substance/The level of expressed mRNA in the absence of chemical substance,"yeast gene YPR048W, cells incubated two hours with the chemical substance",1.5
same,The level of expressed mRNA in the presence of chemical substance/The level of expressed mRNA in the absence of chemical substance,"yeast gene YPR184W, cells incubated two hours with the chemical substance",0.7
